The test system of this assay is D458 medulloblastoma cells. Description: Drug resistance experiment: barcoded D458 cells passaged in JQ1, barcode sequencing and deconvolution. The assay is classed as cell-based. To be noted: FIG. 4; barcoded cells passaged with JQ1 (2 uM per method b225); same barcodes recovered in replicate experiments. As to the method: Drug resistance experiments—D458 and JQ1. Barcoded D458 medulloblastoma cells (fingerprint verified) cells were treated with DMSO or JQ1 (obtained from Drs Bradner and Qi) at a concentration of 2 uM in multiple replicate plates (5×DMSO and 5× each drug concentration). 4 million cells of barcoded D458 cells were plated in each replicate plate in presence of DMSO or JQ1. Barcoded JQ1 cells were also frozen in 10% DMSO/FCS for future retrievable. In addition, cells were also collected for DNA-extraction to determine barcode representation at the early-time point. Cells were retreated with compound every 3-4 days. Cells were counted, passaged or split every 3-4 days, maintaining a minimum representation of 4 million cells. Cells were cultured in DMSO or JQ1 for a total of […] prior to harvesting for DNA extraction for barcode sequencing and deconvolution.
Library deconvolution. Genomic DNA was extracted and prepared for deep sequencing as in (JJ 2017). Libraries were sequenced to a minimum depth of 18 million reads, corresponding to a barcode coverage of >80×.

The source of these data is patent US12433803B2, “Methods and compositions for studying cell evolution” (THE BROAD INSTITUTE, INC., priority 2017, dated 2025).

SMILES strings stand for the structures.

With `Cc1sc2c(c1C)C(c1ccc(Cl)cc1)=N[C@@H](CC(=O)OC(C)(C)C)c1nnc(C)n1-2` [JQ1], the “Percentage of barcodes that persist following treatment with JQ1” value amounted to 5%.
